Tested on: antigen induced arthritis
Assay: Antigen induced arthritis (AIA), knee joint swelling
Format: in vivo
Conditions: rat, per oral administration, FIG. 1
Description: Antigen Induced Arthritis (AIA) in the rat is a well reproducible monoarthritis model. An intraarticular injection of the antigen methylated bovine serum albumin (mBSA) in the knee joint in sensitised animals induces an inflammatory response. The formation of pannus tissue, which invades the synovium, spreads over the articular cartilage and grows into the bone, leading to tissue erosion and remodeling.
AIA responds well to compounds used for standard clinical treatment of human arthritis. Therefore this model is appropriate for the evaluation of the effects of new compounds on joint inflammation and cartilage/bone degradation. The test compounds can be administered locally or systemically. The features of the arthritis can be followed and evaluated by measuring knee joint swelling, by functional scoring and histological analysis. Since it is a monoarthritis model, the level of inflammatory serum markers may be difficult to detect. The AIA model also serves as a source for the production of synoviocytes for in vitro culturing, in order to gain further insight in the synovial matrix composition and for drug screening purposes.
In Antigen induced arthritis—for the effect on knee diameter of Compound 1:16 after per oral administration—see FIG. 1.

SMILES	swelling of the knee (knee diameter)
NCCC(=O)N(CCc1c[nH]c2ccccc12)C(C(=O)Nc1ccccc1)c1ccc(Br)cc1Br (centres unmarked) [Compound 1:16, 3-Amino-N-[(2,4-dibromo-phenyl)-phenylcarbamoyl-methyl]-N-[2-(1H-indol-3-yl)-ethyl]-propionamide]	reduced the swelling of the knee

Molecular target: T1, adenosine A2A receptor (Homo sapiens, UniProt P29274)
T1 construct: from tissue
T1 sequence (P29274 whole entry): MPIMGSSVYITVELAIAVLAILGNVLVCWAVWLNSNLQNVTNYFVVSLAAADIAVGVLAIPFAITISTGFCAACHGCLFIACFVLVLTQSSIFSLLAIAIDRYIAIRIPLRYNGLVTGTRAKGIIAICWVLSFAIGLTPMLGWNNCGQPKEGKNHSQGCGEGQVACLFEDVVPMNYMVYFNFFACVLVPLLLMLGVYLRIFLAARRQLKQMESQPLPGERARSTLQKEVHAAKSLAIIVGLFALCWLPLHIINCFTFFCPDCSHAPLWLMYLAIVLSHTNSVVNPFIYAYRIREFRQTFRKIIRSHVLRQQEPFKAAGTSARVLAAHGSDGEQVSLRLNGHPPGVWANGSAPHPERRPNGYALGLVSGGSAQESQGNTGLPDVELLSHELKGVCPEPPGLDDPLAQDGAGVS
Assay: Affinity for adenosine A2A receptor ([3H]CGS21680 binding, per Varani et al.)
Conditions: not given
Description: The affinity and functionality towards the adenosine A2A receptor was essentially performed as described by Varani et al. (Varani, Pharmacological and biochemical characterization of purified A2A adenosine receptors in human platelet membranes by [^3H]CGS21680 binding, Br. J. Pharmacol. 117:1693-1701, 1996), Table 1.

SMILES	Ki	IC50
NCCC(=O)N(CCc1c[nH]c2ccccc12)C(C(=O)Nc1ccccc1)c1ccc(Br)cc1Br (centres unmarked) [Compound 1:16, 3-Amino-N-[(2,4-dibromo-phenyl)-phenylcarbamoyl-methyl]-N-[2-(1H-indol-3-yl)-ethyl]-propionamide]	17.5 nM	31.1 nM
NCCC(=O)N(CCc1c[nH]c2ccccc12)C(C(=O)NCc1ccccc1)c1ccc(Br)cc1Br (centres unmarked) [1:09, 3-Amino-N-[benzylcarbamoyl-(2,4-dibromo-phenyl)-methyl]-N-[2-(1H-indol-3-yl)-ethyl]-propionamide]	2870 nM	5110 nM
NCCC(=O)N(CCc1c[nH]c2ccccc12)C(C(=O)Nc1ccccc1)c1ccc(Br)cc1 (centres unmarked) [1:15, 3-Amino-N-[(4-bromo-phenyl)-phenylcarbamoyl-methyl]-N-[2-(1H-indol-3-yl)-ethyl]-propionamide]	136 nM	243 nM
NCCC(=O)N(CCc1c[nH]c2ccccc12)C(C(=O)NC1CCCCC1)c1ccc(Br)cc1Br (centres unmarked) [1:04, 3-Amino-N-[cyclohexylcarbamoyl-(2,4-dibromo-phenyl)-methyl]-N-[2-(1H-indol-3-yl)-ethyl]-propionamide]	1600 nM	2840 nM

Now from value to compound:

Ki	IC50	SMILES
60 nM		NCCC(=O)N(CCc1c[nH]c2ccccc12)C(C(=O)Nc1ccccc1)c1ccccc1Br (centres unmarked) [1:13, 3-Amino-N-[(2-bromo-phenyl)-phenylcarbamoyl-methyl]-N-[2-(1H-indol-3-yl)-ethyl]-propionamide]
1000 nM		NCCC(=O)N(CCc1c[nH]c2ccccc12)C(C(=O)NC1CCCCC1)c1ccccc1Br (centres unmarked) [1:02, 3-Amino-N-[(2-bromo-phenyl)-cyclohexylcarbamoyl-methyl]-N-[2-(1H-indol-3-yl)-ethyl]-propionamide]

— patent publication US8227502B2, “Amides acting on the adenosine receptors” (Anamar AB, priority 2006, dated 2012)
